Laboratory results from patent publication US20260240644A1, “BIOPOLYMER-BASED TYMPANOSTOMY TUBES WITH PROGRAMMABLE, TUNABLE, AND ON-DEMAND DEGRADATION” (Trustees of Tufts College, priority 2023, published 2026).

Tested on: Xen29, a Staphylococcus aureus strain
Assay: Kirby Bauer disc diffusion assay of Ciprodex-loaded chitosan
Format: cell-based
Conditions: loaded in chitosan; growth inhibition of Xen29
Description: FIG. 27 depicts results of the Kirby Bauer disc diffusion assay.
To estimate the concentration of ciprofloxacin released by the chitosan, a standard curve was established using blank paper discs and known dilutions of Ciprodex.

`O=C(O)c1cn(C2CC2)c2cc(N3CCNCC3)c(F)cc2c1=O` [Ciprofloxacin, ciprofloxacin] was tested, and the “bioactivity of loaded Ciprofloxacin” value was “maintained its bioactivity”.
